According to patent publication US5646188A, “Polyamine derivatives of 1-aminoindan” (priority 1995, dated 1997):

Experiments:
[1] = test system: voltage-sensitive calcium channel; details: cited from earlier work
NMDA receptor = details: cited from earlier work
[2] = test system: Cultures of Dissociated Neonatal Rat Cerebellum; assay: Reversal of NMDA Induced Cell Death in cultures of dissociated neonatal rat cerebellum; assay type: cell-based; details: positive control
Protocol: (§1) The cerebellum was aseptically dissociated from 6 or 7-day old rat pups and placed in a 15 ml sterile plastic conical tube containing 3 ml of Dulbecco's modified Eagle's medium (DMEM) with a high glucose concentration ([…]) and 2 mM (v/v) L-glutamine and an antibiotic antimitotic mixture. The cerebella were then dissociated after 20-25 passages through a sterile 13 gauge, 10 cm long stainless steel needle attached to a 5 ml syringe with an inserted 45 micrometer pore nylon sieve. The dissociated cells were centrifuged at 200 g for 5 minutes.
Cells were plated at a density of 200/mm^2 on poly-L-lysine coated surfaces. […] The plated cells were covered with enriched medium and incubated at 37° C. in an atmosphere of 5% CO2 in air and 97% humidity. […] Each test compound was tested in duplicate. Toxic-dose response was determined for each compound over a range from 0.005-1000 micromole. Four groups were run in each set of experiments;
I. Control, consisting of enriched media alone,
II. N-methyl-D-aspartate (NMDA, 1 mM for 3 hours) as the cytotoxic challenge,
III. Test compound plus NMDA, and
IV. Positive control, spermine, spermidine or putrescine (0.01 micromoles) plus NMDA.
Surviving cells in Culture are measured relative to control (100%) as described above. Percent protection is the Cell Survival for the test compound minus the NMDA effect. […] The Effective Protection was calculated as the percent of the Percent Protection (X) divided by the maximal protection value (e.g. X×100/70).

in vitro = details: rat, cerebellum cell culture
Protocol: as §1, with “minutes. […] Cell viability was determined by the tryptan blue exclusion test.” for “minutes.”
Cells were plated at a density of 200/mm^2 on poly-L-lysine coated surfaces. Poly-L-lysine coated glass coverslips were prepared at least one hour in advance of plating by immersing sterile coverslips in sterile distilled water solution containing 15 microgram/ml poly-L-lysine, and washing in sterile water just prior. to use. […] After three days in culture, the media was replaced with media containing the desired test compound. Each test compound was tested in duplicate. Toxic-dose response was determined for each compound over a range from 0.005-1000 micromole. Four groups were run in each set of experiments;
Nerve cell survival was evaluated by phase contrast microscopy and tryptan blue staining after 24 hours.
Toxic dose-response curves were compiled using the protocol described above.

[3] = test system: pyramidal neurons throughout the CA1 layer of the anterior hippocampus; assay: Global Brain Ischemia In Gerbils; assay type: in vivo, mongolian gerbils; details: Meriones unguiculatus, Pyramidal neuron, ip, 336 h, 10.0 mg/kg ip, 3 daily injections; 14 days post-ischemia; fraction of hippocampi protected; read-out: PERCENT PROTECTION
Protocol: Male mongolian gerbils, aged 2.5-5 months, housed 4-8 in a cage, were supplied freely with food and water and maintained at 24° C. with a 12 hour day/night cycle.
For surgery the animals were anesthetized with halothane (1.5% in 100% O2) and the common carotid arteries exposed bilaterally through a midline ventral neck incision. Each artery was clamped for 5 minutes with aneurysm clips to produce global brain ischemia. The anesthesia was discontinued upon clamping. After 5 minutes the clamps were removed and the wound closed with skin clips.
For treatment, the test compound or vehicle was injected intra-peritoneally(ip) in a volume of 50 microlitres of solvent per 10 g body weight. The first injection was given two minutes after clamp removal, and thereafter daily for the next 2 post-operative days (total of 3 injections).
Seven groups each of 4-8 animals were compared:
I. Control; (sham- or unoperated and saline treated),
II. Vehicle treated, unoperated (when solvent is other than saline),
III. Ischemia--untreated or saline treated),
IV. Ischemia--vehicle treated (when solvent is other than saline),
V. Ischemia--Test compound treated, one sub-group per concentration tested,
VI. Ischemia and pentobarbital (40 mg/kg) as positive control).
Analysis of neuronal damage was performed 14 days post-ischemia by counting pyramidal neurons throughout the CA1 layer of the anterior hippocampus in […] thick (paraffin) coronal brain sections stained with hematoxylin and erosin.
Percent Protection values represent the fraction of hippocampi protected from ischemia in a group of animals treated with the stated dose of compound.

[4] = test system: ischemia induced nerve cell death; details: gerbils; Gilad G et al.; cited from earlier work

SMILES | voltage-sensitive calcium channel blocking [1] | EAA antagonism / PCP site of NMDA receptor (NMDA receptor) | viability at 0.01 µM ([2]; Rattus norvegicus, 0.01 micromoles + NMDA (1 mM, 3 hours), 24 hours, read-out: SURVIVING CELL IN CULTURE (relative to control, 100%)) [%] | PERCENT PROTECTION ([2]; 0.01 micromoles + NMDA, cell survival minus the NMDA effect (30%)) [%] | CC50 at 24 h (in vitro) [µM] | responders at 10 mg/kg [3] [%] | protecting against ischemia induced nerve cell death [4]
N=C(N)NCCCC(N)C(=O)NCCCNCCCN (stereo not shown) [SFTX-33] | voltage-sensitive calcium channel blockers | EAA antagonists capable of binding at the PCP site on the NMDA receptor |  |  |  |  | 
NCCCCNCCCN [Spermidine, spermidine, reference compound] |  |  | 78 | 48 | 2 | 42 | activity
